As a reminder, the IC50 is the point on the concentration scale where inhibition reaches its midpoint.

The values below come from ChEMBL document CHEMBL2021880, “An Invitation to Open Innovation in Malaria Drug Discovery: 47 Quality Starting Points from the TCAMS” (ACS Med Chem Lett, 2011).

For one data set, the system named is Plasmodium falciparum. The experiment in a line: Antimalarial activity against Plasmodium falciparum 3D7 A infected in red blood cells assessed as inhibition of [3H]hypoxanthine incorporation after 24 hrs by scintillation counting. It counts as functional, organism-based.
Data set [1] in a line: Clearance in mouse microsomes at 0.5 uM. It counts as ADME, Microsome.
The nature of data set [2]: Clearance in human microsomes at 0.5 uM. Format: ADME, Microsome.
In data set [3] the target is Voltage-gated inwardly rectifying potassium channel KCNH2 (Homo sapiens, UniProt Q12809). Kind of data set: Displacement of Cy3b-dofetilide from human ERG expressed in CHO cells by fluorescence polarization assay. Background: Polarisation of emitted light reports the rotation of a fluorescent probe.
Sequence of Voltage-gated inwardly rectifying potassium channel KCNH2 (Q12809 whole entry): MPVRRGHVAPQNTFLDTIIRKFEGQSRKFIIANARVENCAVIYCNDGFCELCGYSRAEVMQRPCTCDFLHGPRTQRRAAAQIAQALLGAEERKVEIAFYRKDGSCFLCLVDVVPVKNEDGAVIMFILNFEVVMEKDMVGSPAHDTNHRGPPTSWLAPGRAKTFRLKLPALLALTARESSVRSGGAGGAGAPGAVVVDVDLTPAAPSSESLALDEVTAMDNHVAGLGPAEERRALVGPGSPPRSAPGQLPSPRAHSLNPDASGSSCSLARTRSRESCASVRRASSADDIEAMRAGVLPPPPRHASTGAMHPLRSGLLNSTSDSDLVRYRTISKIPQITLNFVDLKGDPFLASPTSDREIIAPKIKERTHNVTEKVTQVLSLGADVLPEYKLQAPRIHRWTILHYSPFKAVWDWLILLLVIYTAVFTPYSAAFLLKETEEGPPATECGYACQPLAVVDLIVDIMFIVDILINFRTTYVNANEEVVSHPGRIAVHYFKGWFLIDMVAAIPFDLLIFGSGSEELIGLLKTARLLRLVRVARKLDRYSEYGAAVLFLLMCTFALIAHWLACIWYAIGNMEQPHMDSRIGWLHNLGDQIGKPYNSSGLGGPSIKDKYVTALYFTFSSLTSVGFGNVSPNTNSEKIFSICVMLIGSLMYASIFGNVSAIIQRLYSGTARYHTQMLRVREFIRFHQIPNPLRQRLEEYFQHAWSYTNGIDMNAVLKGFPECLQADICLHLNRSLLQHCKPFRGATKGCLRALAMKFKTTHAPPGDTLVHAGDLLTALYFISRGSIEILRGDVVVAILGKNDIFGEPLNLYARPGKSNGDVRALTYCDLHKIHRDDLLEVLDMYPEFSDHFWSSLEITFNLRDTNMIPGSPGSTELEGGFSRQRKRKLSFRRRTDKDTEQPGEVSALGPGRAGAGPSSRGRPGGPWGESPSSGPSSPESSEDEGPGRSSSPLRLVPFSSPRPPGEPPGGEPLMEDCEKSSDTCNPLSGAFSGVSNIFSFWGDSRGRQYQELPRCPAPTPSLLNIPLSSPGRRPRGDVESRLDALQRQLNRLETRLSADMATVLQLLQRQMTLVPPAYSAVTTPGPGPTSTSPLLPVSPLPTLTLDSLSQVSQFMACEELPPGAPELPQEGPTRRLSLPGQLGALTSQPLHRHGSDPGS

For the compound `O=C(Nc1cc(C(F)(F)F)ccc1-n1cncn1)C1(c2ccccc2)CC1`, the IC50 in the data set with Plasmodium falciparum was 30 nM. For the same compound, the CL in data set [1] is under 0.8 mL/min/g; in data set [2], under 0.3 mL/min/g.
For `CN(C)CCNC(=O)c1cc2c(-c3ccc(Cl)cc3)nn(C)c2s1`, the IC50 in the data set on Plasmodium falciparum was found to be 950 nM. The CL in data set [1] was found to be 4 mL/min/g; in data set [2], 0.3 mL/min/g. The INH in data set [3] stood at 6.3 µM.
With `COc1cc2c(cc1C(F)(F)F)N(C(=O)Nc1cc(OC(F)(F)F)cc(-c3cccnc3)c1)CC2`, in the data set with Plasmodium falciparum, the IC50 is 80 nM and the XC50 is 40 nM. This compound also gave a CL in data set [1] of under 0.3 mL/min/g. Also, the CL in data set [2] is under 0.3 mL/min/g. For the same compound, the INH in data set [3] is over 15 µM.
Take `Cc1cc(C(=O)NC2CCN(CC3(c4ccc(Cl)cc4)CCC3)CC2)on1`: the IC50 in the data set with Plasmodium falciparum turned out to be 80 nM. The XC50 with Plasmodium falciparum worked out at 90 nM. The figures for the CL in data set [1] and in data set [2] were 5.6 mL/min/g and 18.8 mL/min/g, respectively.
For `CC(C)(C)c1cc(C(=O)N2CCN(c3ncccc3C(F)(F)F)CC2)n(Cc2ccccc2)n1`, in the data set on Plasmodium falciparum, the IC50 amounted to 100 nM. The CL was over 30 mL/min/g in data set [1] and 12.7 mL/min/g in data set [2]. The compound also returned an INH in data set [3] of over 50 µM.
